From US20180064755A1, “COMPOSITIONS AND METHODS FOR TREATING DRUG ADDICTION” (priority 2015, published 2018)

Test system: codeine addiction
Assay: Blind trial, rubidium chloride to treat codeine addiction
Type: in vivo, human
Protocol: The trial below was a blind trial with 300 mg of rubidium chloride taken once per day administered in a glass of water in the morning by a person of 90 kg; and a placebo being taken by a person of 66 kg, both of whom were addicted to codeine
The trial was undertaken with the recommendation by doctors not to proceed too quickly and to eat potassium rich foods, especially at night; The most difficult aspect was to stop the craving in the evening—a solution for people who cannot stop the craving at night would be to split the dosage of the 300 mg of Rubidium Chloride and take half in the morning and half late in the afternoon.
The aim of this trial was to stop the craving for codeine with the aid of the compound and use the enhanced energy and stimulation supplied from the compound that was tested to change addiction habits.
The trial was for 300 mg of Rubidium Chloride taken once per day taken in a glass of water in the morning in this blind study and a placebo of powdered sugar taken once per day taken in a glass of water in the morning.

[1] = 90 kg male, 300 mg once per day, self-report

In the case of `[Cl-].[Rb+]` [rubidium chloride], the craving for codeine (90 kg male addicted to codeine, 300 mg once per day in a glass of water in the morning, self-report) was “less craving for the drug than normal even after the first day”, the “energy and activity during the day” value [1] was “much more energy than before” and the “stimulation from the medication” value [1] was “very, very strong”. For the same compound, the “outcome of codeine addiction” value (90 kg male, 300 mg once per day, two month trial) was “lost the addiction to codeine”.
